Source: patent EP2787003A1, “Antimicrobial peptide produced by marine sponge-derived Bacillus subtilis” (priority 2013, dated 2014)

Tests used:
B. cereus = assay: Spot on lawn assay; assay type: cell-based, Bacillus cereus NCIMB 9373; design: key: +, clear halo of growth inhibition; ++: multiple +, increased activity as assessed visually by the increased diameter of the inhibition zone; +++: multiple +, increased activity as assessed visually by the increased diameter of the inhibition zone; ++++: multiple +, increased activity as assessed visually by the increased diameter of the inhibition zone; +++++: multiple +, increased activity as assessed visually by the increased diameter of the inhibition zone; -, no inhibition; settings: indicator B. cereus
Method: (§1) Antimicrobial activity of isolate MMA7 against the indicator strains was initially assessed with a deferred antagonism assay as described by Phelan et al. (2012). Subsequent testing of supernatants, crude extracts and purified compounds was carried out with a well and/or a spot on lawn assays. Essentially, 5 µl of samples were spotted onto 20 ml agar plates seeded with the indicator strain to a final OD600 of 0.015, or 30 µl aliquots were applied to a 5 mm well made on identical plates.

L. monocytogenes [1] = assay: Spot on lawn assay; assay type: cell-based, Listeria monocytogenes EGDe; design: key: +, clear halo of growth inhibition; ++: multiple +, increased activity as assessed visually by the increased diameter of the inhibition zone; +++: multiple +, increased activity as assessed visually by the increased diameter of the inhibition zone; ++++: multiple +, increased activity as assessed visually by the increased diameter of the inhibition zone; +++++: multiple +, increased activity as assessed visually by the increased diameter of the inhibition zone; -, no inhibition; settings: indicator L. monocytogenes
Method: as §1

L. innocua = assay: Spot on lawn assay; assay type: cell-based, Listeria innocua DPC 3567; design: key: +, clear halo of growth inhibition; ++: multiple +, increased activity as assessed visually by the increased diameter of the inhibition zone; +++: multiple +, increased activity as assessed visually by the increased diameter of the inhibition zone; ++++: multiple +, increased activity as assessed visually by the increased diameter of the inhibition zone; +++++: multiple +, increased activity as assessed visually by the increased diameter of the inhibition zone; -, no inhibition; settings: indicator L. innocua
Method: as §1

E. faecium = assay: Spot on lawn assay; assay type: cell-based, Euterococcous faecium NCIMB 11508; design: key: +, clear halo of growth inhibition; ++: multiple +, increased activity as assessed visually by the increased diameter of the inhibition zone; +++: multiple +, increased activity as assessed visually by the increased diameter of the inhibition zone; ++++: multiple +, increased activity as assessed visually by the increased diameter of the inhibition zone; +++++: multiple +, increased activity as assessed visually by the increased diameter of the inhibition zone; -, no inhibition; settings: indicator E. faecium
Method: as §1

MRSA = assay: Spot on lawn assay; assay type: cell-based, MRSA ST 530; design: key: +, clear halo of growth inhibition; ++: multiple +, increased activity as assessed visually by the increased diameter of the inhibition zone; +++: multiple +, increased activity as assessed visually by the increased diameter of the inhibition zone; ++++: multiple +, increased activity as assessed visually by the increased diameter of the inhibition zone; +++++: multiple +, increased activity as assessed visually by the increased diameter of the inhibition zone; -, no inhibition; settings: indicator MRSA
VRE = assay: Spot on lawn assay; assay type: cell-based, VRE EC725; design: key: +, clear halo of growth inhibition; ++: multiple +, increased activity as assessed visually by the increased diameter of the inhibition zone; +++: multiple +, increased activity as assessed visually by the increased diameter of the inhibition zone; ++++: multiple +, increased activity as assessed visually by the increased diameter of the inhibition zone; +++++: multiple +, increased activity as assessed visually by the increased diameter of the inhibition zone; -, no inhibition; settings: indicator VRE
C. albicans = assay: Spot on lawn assay; assay type: cell-based, Candida albicans SC5314; design: key: +, clear halo of growth inhibition; ++: multiple +, increased activity as assessed visually by the increased diameter of the inhibition zone; +++: multiple +, increased activity as assessed visually by the increased diameter of the inhibition zone; ++++: multiple +, increased activity as assessed visually by the increased diameter of the inhibition zone; +++++: multiple +, increased activity as assessed visually by the increased diameter of the inhibition zone; -, no inhibition; settings: indicator C. albicans
Method: as §1

C. parapsilosis = assay: Spot on lawn assay; assay type: cell-based, Candida parapsilosis; design: key: +, clear halo of growth inhibition; ++: multiple +, increased activity as assessed visually by the increased diameter of the inhibition zone; +++: multiple +, increased activity as assessed visually by the increased diameter of the inhibition zone; ++++: multiple +, increased activity as assessed visually by the increased diameter of the inhibition zone; +++++: multiple +, increased activity as assessed visually by the increased diameter of the inhibition zone; -, no inhibition; settings: indicator C. parapsilosis
Method: as §1

L. monocytogenes [2] = assay: Mode of action: growth of the indicator in 96 well plates (optical density, cfu); assay type: cell-based, Listeria monocytogenes EGDe
Method: Initially 100 µl aliquots of a two-fold serial dilution of the MB 12h cultures CFS, ASCE and the purified peptide (approx. 150 µg ml^-1), were applied to individual wells on a 96 flat bottom multiple well plate (Sarstedt). An overnight culture of the indicator strain was diluted to an OD595 of 0.05 and 100 µl were applied to each of the wells containing the bioactive peptide. The plate was incubated at 37 °C, with agitation (200 rpm) and the optical density (595 nm) was monitored hourly. Wells where the indicator was added to water only were used as negative controls. Subsequently, 100 µl of indicator overnight cultures diluted to an OD595 of 0.05 were applied to individual wells on a 96 well plate and allowed to grow to an OD595 of 0.5-0.6. 100 µl of a two-fold serial dilutions of the CFS, the respective ASCE and purified peptide, or water, were then applied to the different wells and growth continued to be monitored hourly. At the different time points samples were taken and the number of cfu determined by plating dilutions onto appropriate agar plates.

[3] = tested on: L. monocytogenes and B. cereus; assay: Storage stability, bioactivity by spot on lawn assay; assay type: physicochemical
Source text: Untreated samples were used as controls.

L. monocytogenes [4] = assay: Activity at different pH values, spot on lawn assay

Compound: C=C1NC(=O)[C@@H]2CSC[C@@H](NC(=O)[C@@H]3CS[C@@H](C)[C@H]4NC(=O)[C@H](Cc5ccccc5)NC(=O)[C@H](NC(=O)[C@H](CCCNC(=N)N)NC(=O)[C@@H]5CSC[C@@H](NC(=O)[C@H](CCC(N)=O)NC(=O)[C@@H](NC(=O)[C@@H](NC(=O)/C(=C/C)NC(=O)[C@H](CCCCN)NC(=O)CNC(=O)[C@@H](NC(=O)/C(=C/C)NC(=O)[C@H](C)NC(=O)[C@H](Cc6c[nH]c7ccccc67)NC(=O)C(=O)CC)[C@@H](C)CC)[C@@H](C)CC)C(C)C)C(=O)N[C@@H](C(C)C)C(=O)N[C@@H](CCCCN)C(=O)N[C@@H](CCCCN)C(=O)N5)[C@H](C)SC[C@H](NC4=O)C(=O)NCC(=O)N3)C(=O)N[C@@H](CC(C)C)C(=O)NCC(=O)N[C@H](CSC[C@@H](C(=O)N[C@@H](CC(N)=O)C(=O)O)NC(=O)[C@H](CC(N)=O)NC1=O)C(=O)N2 [Subtilomycin]
- Antimicrobial activity, spot on lawn assay (B. cereus): ++
- Antimicrobial activity, spot on lawn assay (L. monocytogenes [1]): ++
- Antimicrobial activity, spot on lawn assay (L. innocua): ++
- Antimicrobial activity, spot on lawn assay (E. faecium): -
- Antimicrobial activity, spot on lawn assay (MRSA): +
- Antimicrobial activity, spot on lawn assay (VRE): -
- Antimicrobial activity, spot on lawn assay (C. albicans): -
- Antimicrobial activity, spot on lawn assay (C. parapsilosis): -
- Nature of the inhibitory activity (mode of action) (L. monocytogenes [2]; L. monocytogenes): bacteriolytic action
- Effect on growth of the indicator (L. monocytogenes [2]; L. monocytogenes grown in presence of sample from the beginning of growth (T0), samples from 12 h MB cultures): completely abolish growth
- Activity after storage ([3]; after 5 months storage at -20 °C and -80 °C): No activity
- Activity after storage ([3]; stored at 4 °C and room temperature, after two weeks): lost their activity
- Period of storage with retained activity ([3]; stored at -20 °C and -80 °C, spot on lawn against L. monocytogenes and B. cereus): up to 4 months
- Activity at different pH (L. monocytogenes [4]; pH 9, 1 h at room temperature): reduction in activity
- Activity at different pH (L. monocytogenes [4]; pH range 2 to 8, 1 h at room temperature): fully active
- Activity at different pH (L. monocytogenes [4]; pH values higher than 9 (up to 11)): no activity
